This passage reports IC50 results from patent publication US10913738B2 (BRISTOL-MYERS SQUIBB COMPANY, priority 2017, dated 2021).

The test system of assay [1] is MLKL phosphorylation in HT29-L23 human colorectal adenocarcinoma cells. The assay is described as follows: MLKL Phosphorylation High-Content Assay. The format is cell-based. The conditions noted are these: Homo sapiens. Put shortly: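 Cells incubated six hours at 37° C., then phospho-MLKL (S358) immunostained overnight at 4° C. and imaged by high-content microscopy. Phosphorylation quantified as mean circ-ring average intensity ratio; IC50 and Ymax from 4-parameter logistic fits.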

Assay [2] addresses T1, His-GST-TVMV-hRIPK1(1-324) (Homo sapiens, UniProt Q13546).
T1 construct: The coding region of human RIPK1(1-324) flanked by NdeI site at 5′ end; made in house; host or cells: Spodoptera frugiperda (Sf9) insect cells, baculovirus
T1 sequence (Q13546 1-324): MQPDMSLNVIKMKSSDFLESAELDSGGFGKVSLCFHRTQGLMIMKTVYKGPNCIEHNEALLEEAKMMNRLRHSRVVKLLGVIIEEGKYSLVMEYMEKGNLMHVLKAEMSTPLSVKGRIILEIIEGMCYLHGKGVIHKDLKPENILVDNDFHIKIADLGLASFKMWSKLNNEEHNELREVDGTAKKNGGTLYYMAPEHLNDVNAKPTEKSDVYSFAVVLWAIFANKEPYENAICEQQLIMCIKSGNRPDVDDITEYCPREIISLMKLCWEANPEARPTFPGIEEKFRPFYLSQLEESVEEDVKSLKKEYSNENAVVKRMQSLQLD
Description: RIPK1 HTRF Binding Assay. For orientation: In TR-FRET formats the signal depends on donor and acceptor labels being close together.

[3] abbreviates: x marks IC50 class 20-200 nM, read-out: pMLKL cell activity 20-200 nM.
Setting [4] is: x marks IC50 class <20 nM, read-out: RIPK1 HTRF binding <20 nM.
Where [5] appears, read: x marks IC50 class >200 nM, read-out: pMLKL cell activity >200 nM.
The mark [6] stands for this setting: x marks IC50 class 20-200 nM, read-out: RIPK1 HTRF binding 20-200 nM.
The mark [7] stands for this setting: x marks IC50 class <20 nM, read-out: pMLKL cell activity <20 nM.
The mark [8] stands for this setting: x marks IC50 class >200 nM, read-out: RIPK1 HTRF binding >200 nM.

Each structure is given as a SMILES string. Read-outs that look alike come from different tables or passages of the source. Some results are limits rather than exact numbers.

Take `COc1ncc(-c2ccn3nc(N)nc3c2)cc1C(=O)NCc1c(F)cccc1OCC1CCCC1` [Example 126, 5-{2-amino-[1,2,4]triazolo[1,5-a]pyridin-7-yl}-N-{[2-(cyclopentylmethoxy)-6-fluorophenyl]methyl}-2-methoxypyridine-3-carboxamide]: the figures for the IC50 in assay [1] (setting [3]) and in assay [2] (setting [4]) were 20 to 200 nM and below 20 nM, respectively.
`Cc1ncc(C(=O)NCc2cc(OC(F)(F)F)ccc2F)cc1-c1ccn2nc(N)nc2c1` [Example 256, 5-{2-amino-[1,2,4]triazolo[1,5-a]pyridin-7-yl}-N-{[2-fluoro-5-(trifluoromethoxy)phenyl]methyl}-6-methylpyridine-3-carboxamide]: the IC50 is above 200 nM in assay [1] (setting [5]) and 20 to 200 nM in assay [2] (setting [6]).
Consider `Cc1nc(C)c(-c2ccn3nc(N)nc3c2)cc1C(=O)NCc1ccccc1OC(C)C1CCCC1` (stereo not drawn) [Example 16, 5-{2-Amino-[1,2,4]triazolo[1,5-a]pyridin-7-yl}-N-{[2-(1-cyclopentylethoxy)phenyl]methyl}-2,6-dimethylpyridine-3-carboxamide], for which the IC50 in assay [1] (setting [3]) is 20 to 200 nM; in assay [2] (setting [4]), below 20 nM.
For `[2H]C([2H])([2H])Oc1ncc(-c2ccn3nc(N)nc3c2)cc1C(=O)NC([2H])([2H])c1cc(OC(F)(F)F)ccc1F` [Example 93, 5-{2-amino-[1,2,4]triazolo[1,5-a]pyridin-7-yl}-N-{[2-fluoro-5-(trifluoromethoxy)phenyl] (deutero)methyl}-2-(deutero)methoxypyridine-3-carboxamide], in that order: 20 to 200 nM and below 20 nM.
For `CCOc1ncc(-c2ccn3nc(N)nc3c2)cc1C(=O)NCCc1ccccc1Oc1ccccc1` [Example 269, 5-{2-amino-[1,2,4]triazolo[1,5-a]pyridin-7-yl}-2-ethoxy-N-[2-(2-phenoxyphenyl)ethyl]pyridine-3-carboxamide], in that order: 20 to 200 nM and below 20 nM.
Regarding `COc1ccc(CC2CCCN(C(=O)c3cc(-c4ccn5nc(N)nc5c4)cnc3OC)C2)cc1` (stereo not drawn) [Example 120, 7-(6-methoxy-5-{3-[(4-methoxyphenyl)methyl]piperidine-1-carbonyl}pyridin-3-yl)-[1,2,4]triazolo[1,5-a]pyridin-2-amine], the IC50 in assay [1] (setting [3]) and in assay [2] (setting [6]) was 20 to 200 nM throughout.
As for `COc1nc(C)c(-c2ccn3nc(N)nc3c2)cc1C(=O)NCc1c(F)cccc1OCC1CC1` [Example 215, 5-{2-amino-[1,2,4]triazolo[1,5-a]pyridin-7-yl}-N-{[2-(cyclopropylmethoxy)-6-fluorophenyl]methyl}-2-methoxy-6-methylpyridine-3-carboxamide], the IC50 in assay [1] (setting [7]) and in assay [2] (setting [4]) was below 20 nM in each case.
Consider `COc1ncc(-c2ccn3nc(N)nc3c2)cc1C(=O)NC(C)c1cccc(OC(F)(F)F)c1` (single isomer, unassigned) [Example 36-1, 5-{2-Amino-[1,2,4]triazolo[1,5-a]pyridin-7-yl}-2-methoxy-N-{1-[3-(trifluoromethoxy)phenyl]ethyl}pyridine-3-carboxamide], for which the IC50 in assay [1] (setting [3]) and in assay [2] (setting [6]) was 20 to 200 nM throughout.
For the compound `Cc1ncc(-c2ccn3nc(N)nc3c2)cc1C(=O)NCc1ccccc1OC1CCCCC1` [Example 239, 5-{2-amino-[1,2,4]triazolo[1,5-a]pyridin-7-yl}-N-{[2-(cyclohexyloxy)phenyl]methyl}-2-methylpyridine-3-carboxamide], the IC50 in assay [1] (setting [7]) and in assay [2] (setting [4]) was below 20 nM throughout.
As to `Cc1ncc(-c2ccn3nc(N)nc3c2)cc1C(=O)NCc1ccccc1OC(F)(F)C(F)F` [Example 244, 5-{2-amino-[1,2,4]triazolo[1,5-a]pyridin-7-yl}-2-methyl-N-{[2-(1,1,2,2-tetrafluoroethoxy)phenyl]methyl}pyridine-3-carboxamide], the values for the IC50 in assay [1] (setting [5]) and in assay [2] (setting [6]) were above 200 nM and 20 to 200 nM, respectively.
Regarding `COc1nc(C)c(-c2ccn3nc(N)nc3c2)cc1C(=O)NCc1c(F)cc(F)cc1OCC1CCCC1` [Example 202, 5-{2-amino-[1,2,4]triazolo[1,5-a]pyridin-7-yl}-N-{[2-(cyclopentylmethoxy)-4,6-difluorophenyl]methyl}-2-methoxy-6-methylpyridine-3-carboxamide], the IC50 in assay [1] (setting [3]) was 20 to 200 nM; in assay [2] (setting [4]), below 20 nM.
Turning to `COc1ncc(-c2ccn3nc(N)nc3c2)cc1C(=O)NCc1cccc(F)c1CN1CCOCC1` [Example 365, 5-(2-amino-[1,2,4]triazolo[1,5-a]pyridin-7-yl)-N-(3-fluoro-2-(morpholinomethyl)benzyl)-2-methoxynicotinamide], the IC50 in assay [1] (setting [5]) is above 200 nM; in assay [2] (setting [6]), 20 to 200 nM.
As to `COc1nc(C)c(-c2ccn3nc(N)nc3c2)cc1C(=O)NCc1cccnc1OC1CCCC1` [Example 34, 5-{2-Amino-[1,2,4]triazolo[1,5-a]pyridin-7-yl}-N-{[2-(cyclopentyloxy)pyridin-3-yl]methyl}-2-methoxy-6-methylpyridine-3-carboxamide], the IC50 in assay [1] (setting [7]) and in assay [2] (setting [4]) was below 20 nM in each case.
`Nc1nc2cc(-c3cncc(C(=O)NCc4ccccc4OCC4CC4)c3)ccn2n1` [Example 42, 5-{2-Amino-[1,2,4]triazolo[1,5-a]pyridin-7-yl}-N-{[2-(cyclopropylmethoxy)phenyl]methyl}pyridine-3-carboxamide]: the IC50 in assay [1] (setting [7]) and in assay [2] (setting [4]) was below 20 nM each time.
In the case of `CCc1ncc(-c2ccn3nc(N)nc3c2)cc1C(=O)NCCC(C)c1ccccc1` (stereo not drawn) [Example 66, 5-{2-Amino-[1,2,4]triazolo[1,5-a]pyridin-7-yl}-2-ethyl-N-(3-phenylbutyl)pyridine-3-carboxamide], the results for the IC50 in assay [1] (setting [3]) and in assay [2] (setting [4]) were 20 to 200 nM and below 20 nM, respectively.
For `COc1ncc(-c2ccn3nc(N)nc3c2)cc1C(=O)NCc1cccnc1OCC1CCCC1` [Example 127, 5-{2-amino-[1,2,4]triazolo[1,5-a]pyridin-7-yl}-N-{[2-(cyclopentylmethoxy)pyridin-3-yl]methyl}-2-methoxypyridine-3-carboxamide], in that order: 20 to 200 nM and below 20 nM.
As to `Cc1ncc(-c2ccn3nc(N)nc3c2)cc1C(=O)NCc1cc(OC(F)(F)F)ccc1F` [Example 229, 5-{2-amino-[1,2,4]triazolo[1,5-a]pyridin-7-yl}-N-{[2-fluoro-5-(trifluoromethoxy)phenyl]methyl}-2-methylpyridine-3-carboxamide], the IC50 was 20 to 200 nM in assay [1] (setting [3]) and below 20 nM in assay [2] (setting [4]).
For `COc1ncc(-c2ccn3nc(N)nc3c2)cc1C(=O)NC(C)c1cccc(OC(F)(F)F)c1` (single isomer, unassigned) [Example 36-2, 5-{2-Amino-[1,2,4]triazolo[1,5-a]pyridin-7-yl}-2-methoxy-N-{1-[3-(trifluoromethoxy)phenyl]ethyl}pyridine-3-carboxamide], the IC50 in assay [1] (setting [5]) and in assay [2] (setting [8]) was above 200 nM throughout.
On to `COc1nc(C)c(-c2ccn3nc(N)nc3c2)cc1C(=O)NCc1cc(F)cc(F)c1OC1CCOC(C)C1` (stereo not drawn) [Example 352, 5-(2-amino-[1,2,4]triazolo[1,5-a]pyridin-7-yl)-N-(3,5-difluoro-2-((2-methyltetrahydro-2H-pyran-4-yl)oxy)benzyl)-2-methoxy-6-methylnicotinamide], for which the IC50 in assay [1] (setting [3]) is 20 to 200 nM; in assay [2] (setting [4]) it was below 20 nM.
The matching figures for `COc1ncc(C(=O)NCc2c(F)cccc2OCC2CCC2)cc1-c1ccn2nc(N)nc2c1` [Example 25, 5-{2-Amino-[1,2,4]triazolo[1,5-a]pyridin-7-yl}-N-{[2-(cyclobutylmethoxy)-6-fluorophenyl]methyl}-6-methoxypyridine-3-carboxamide]: 20 to 200 nM and below 20 nM.
For `COc1ncc(-c2ccn3nc(N)nc3c2)cc1C(=O)NCc1ccccc1OC1CCOCC1` [Example 115, 5-{2-amino-[1,2,4]triazolo[1,5-a]pyridin-7-yl}-2-methoxy-N-{[2-(oxan-4-yloxy)phenyl]methyl}pyridine-3-carboxamide], the IC50 in assay [1] (setting [7]) and in assay [2] (setting [4]) was below 20 nM in each case.
Take `[2H]C([2H])(NC(=O)c1cc(-c2ccn3nc(N)nc3c2)c(C)nc1C)c1cc(C(F)(F)F)ccc1F` [Example 288, 5-(2-amino-[1,2,4]triazolo[1,5-a]pyridin-7-yl)-N-((2-fluoro-5-(trifluoromethyl)phenyl)methyl-d2)-2,6-dimethylnicotinamide]: the IC50 in assay [1] (setting [3]) was 20 to 200 nM; in assay [2] (setting [4]) it was below 20 nM.
For `COc1ncc(-c2ccn3nc(N)nc3c2)cc1C(=O)N1CCOC(c2ccccc2)C1` (stereo not drawn) [Example 425], the IC50 in assay [1] (setting [5]) and in assay [2] (setting [8]) was above 200 nM in each case.
Take `COc1ncc(-c2ccn3nc(N)nc3c2)cc1C(=O)N1CCC[C@H](Cc2ccc(F)cc2)C1` [Example 134, 7-{5-[(3R)-3-[(4-fluorophenyl)methyl]piperidine-1-carbonyl]-6-methoxypyridin-3-yl}-[1,2,4]triazolo[1,5-a]pyridin-2-amine]: the IC50 is below 20 nM in assay [1] (setting [7]) and 20 to 200 nM in assay [2] (setting [6]).
